Results as given in ChEMBL document CHEMBL5338777, “Small-Molecule Modulators Targeting Toll-like Receptors for Potential Anticancer Therapeutics” (J Med Chem, 2023).

Key:
[1] = target: T1, Toll-like receptor 1/2 (Homo sapiens, UniProt O60603+Q15399); test: Antagonist activity at human TLR1/TLR2; type: protein-complex assay
[2] = target: T2, TLR2/TLR6 (Homo sapiens, UniProt O60603+Q9Y2C9); test: Antagonist activity at human TLR2/TLR6; type: protein-complex assay
[3] = target: T1, Toll-like receptor 1/2; test: Antagonist activity at TLR1/TLR2 in HEK-Blue hTLR2 cells; type: cell-based
[4] = target: T2, TLR2/TLR6; test: Antagonist activity at TLR2/TLR6 in human THP-1 cells; type: cell-based
[5] = target: T3, Toll-like receptor 7 (Homo sapiens, UniProt Q9NYK1)
T3 sequence (Q9NYK1 whole entry): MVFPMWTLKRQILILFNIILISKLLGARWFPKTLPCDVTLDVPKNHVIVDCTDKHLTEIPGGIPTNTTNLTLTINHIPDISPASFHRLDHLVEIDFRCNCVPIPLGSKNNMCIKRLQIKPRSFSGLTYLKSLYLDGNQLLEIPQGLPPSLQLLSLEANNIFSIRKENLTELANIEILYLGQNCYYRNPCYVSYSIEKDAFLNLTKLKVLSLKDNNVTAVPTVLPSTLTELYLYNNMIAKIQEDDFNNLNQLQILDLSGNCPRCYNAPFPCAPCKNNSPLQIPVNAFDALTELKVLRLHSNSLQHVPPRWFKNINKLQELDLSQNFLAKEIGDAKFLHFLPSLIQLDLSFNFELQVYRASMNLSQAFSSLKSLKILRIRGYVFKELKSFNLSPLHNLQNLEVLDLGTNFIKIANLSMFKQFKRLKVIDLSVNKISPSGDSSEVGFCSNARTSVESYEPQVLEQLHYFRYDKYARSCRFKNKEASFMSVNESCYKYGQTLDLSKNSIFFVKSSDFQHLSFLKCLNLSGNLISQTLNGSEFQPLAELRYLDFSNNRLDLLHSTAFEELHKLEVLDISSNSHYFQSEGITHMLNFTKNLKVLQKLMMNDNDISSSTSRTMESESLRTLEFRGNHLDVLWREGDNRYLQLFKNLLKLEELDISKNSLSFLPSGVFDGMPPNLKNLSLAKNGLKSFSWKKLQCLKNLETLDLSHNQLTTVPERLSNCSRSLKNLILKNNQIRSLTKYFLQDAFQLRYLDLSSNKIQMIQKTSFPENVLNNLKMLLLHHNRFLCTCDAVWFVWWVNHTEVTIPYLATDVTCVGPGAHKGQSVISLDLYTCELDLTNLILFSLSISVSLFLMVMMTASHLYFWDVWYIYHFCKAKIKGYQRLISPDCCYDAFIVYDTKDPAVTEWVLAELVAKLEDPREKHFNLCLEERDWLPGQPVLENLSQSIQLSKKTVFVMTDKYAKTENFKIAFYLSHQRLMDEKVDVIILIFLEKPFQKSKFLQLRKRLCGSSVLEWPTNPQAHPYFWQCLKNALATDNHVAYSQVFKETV
Description: (§1) Agonist activity at TLR7 (unknown origin)

[6] = target: T1, Toll-like receptor 1/2; test: Antagonist activity at TLR1/TLR2 (unknown origin); type: protein-complex assay
[7] = target: T4, Toll-like receptor 3 (Homo sapiens, UniProt O15455); test: Antagonist activity at TLR3 (unknown origin)
T4 sequence (O15455 whole entry): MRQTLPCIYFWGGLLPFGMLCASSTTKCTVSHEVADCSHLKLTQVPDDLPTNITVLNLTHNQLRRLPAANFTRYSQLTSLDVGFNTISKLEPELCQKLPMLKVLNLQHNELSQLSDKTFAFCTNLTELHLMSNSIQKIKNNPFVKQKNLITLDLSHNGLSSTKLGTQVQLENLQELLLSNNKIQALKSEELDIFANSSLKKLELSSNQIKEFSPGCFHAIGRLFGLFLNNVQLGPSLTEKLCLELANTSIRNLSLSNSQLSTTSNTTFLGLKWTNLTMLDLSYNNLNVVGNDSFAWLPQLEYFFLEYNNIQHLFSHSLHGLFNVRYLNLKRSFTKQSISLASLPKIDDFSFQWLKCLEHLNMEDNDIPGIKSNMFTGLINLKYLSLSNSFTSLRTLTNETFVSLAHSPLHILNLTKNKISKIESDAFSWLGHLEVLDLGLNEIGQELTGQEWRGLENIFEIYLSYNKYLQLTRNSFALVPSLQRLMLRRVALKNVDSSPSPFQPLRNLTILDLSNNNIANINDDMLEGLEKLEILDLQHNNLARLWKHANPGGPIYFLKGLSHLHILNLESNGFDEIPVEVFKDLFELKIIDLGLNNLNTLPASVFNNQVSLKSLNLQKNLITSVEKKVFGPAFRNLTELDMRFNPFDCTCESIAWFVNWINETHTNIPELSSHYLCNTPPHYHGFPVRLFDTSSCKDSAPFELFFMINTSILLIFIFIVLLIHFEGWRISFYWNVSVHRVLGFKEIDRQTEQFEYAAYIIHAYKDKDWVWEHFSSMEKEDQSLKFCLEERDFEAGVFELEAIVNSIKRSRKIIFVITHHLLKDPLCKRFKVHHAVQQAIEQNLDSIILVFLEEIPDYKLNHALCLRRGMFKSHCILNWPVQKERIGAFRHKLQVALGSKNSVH

[8] = target: T5, Toll-like receptor 8 (Homo sapiens, UniProt Q9NR97); test: Binding affinity to human TLR8 expressed in HEK-Blue hTLR8 cells; type: cell-based
T5 sequence (Q9NR97 whole entry): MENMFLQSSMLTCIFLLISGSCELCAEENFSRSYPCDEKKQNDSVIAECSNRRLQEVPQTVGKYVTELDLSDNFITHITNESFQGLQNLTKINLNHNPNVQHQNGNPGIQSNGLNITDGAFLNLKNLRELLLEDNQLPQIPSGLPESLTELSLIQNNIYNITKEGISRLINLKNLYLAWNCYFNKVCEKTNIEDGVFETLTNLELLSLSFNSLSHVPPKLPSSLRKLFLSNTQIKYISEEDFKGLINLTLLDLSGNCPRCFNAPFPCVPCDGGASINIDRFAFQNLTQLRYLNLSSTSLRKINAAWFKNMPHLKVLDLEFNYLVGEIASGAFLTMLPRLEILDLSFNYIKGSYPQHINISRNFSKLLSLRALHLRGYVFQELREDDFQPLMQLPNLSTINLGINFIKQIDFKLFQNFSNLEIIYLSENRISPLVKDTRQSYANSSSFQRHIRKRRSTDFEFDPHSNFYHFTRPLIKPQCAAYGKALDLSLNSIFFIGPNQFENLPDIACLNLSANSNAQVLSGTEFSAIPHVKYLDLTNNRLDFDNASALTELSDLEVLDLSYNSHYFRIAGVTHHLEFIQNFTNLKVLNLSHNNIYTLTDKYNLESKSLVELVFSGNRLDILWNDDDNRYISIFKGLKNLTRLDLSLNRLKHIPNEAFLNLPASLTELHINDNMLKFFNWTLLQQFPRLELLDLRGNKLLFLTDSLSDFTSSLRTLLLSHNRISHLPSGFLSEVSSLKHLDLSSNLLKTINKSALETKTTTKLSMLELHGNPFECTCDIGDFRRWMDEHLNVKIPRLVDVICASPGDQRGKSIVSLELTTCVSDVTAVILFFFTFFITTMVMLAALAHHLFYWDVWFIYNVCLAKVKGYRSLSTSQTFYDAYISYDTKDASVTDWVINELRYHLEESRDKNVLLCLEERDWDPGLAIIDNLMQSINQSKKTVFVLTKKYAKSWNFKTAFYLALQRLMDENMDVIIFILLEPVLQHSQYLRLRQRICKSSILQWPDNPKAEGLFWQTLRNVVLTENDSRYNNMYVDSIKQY

[9] = target: T1, Toll-like receptor 1/2
Description: Agonist activity at TLR1/TLR2 in human THP-1 cells

[10] = target: T5, Toll-like receptor 8; test: Antagonist activity at human TLR8
[11] = target: T5, Toll-like receptor 8
Description: (§2) Agonist activity at TLR8 (unknown origin)

[12] = target: T3, Toll-like receptor 7; remark: listed apart in the source
Description: as §1

[13] = target: Toll-like receptor 5 (Homo sapiens, UniProt O60602); test: Antagonist activity at TLR5 (unknown origin)
Chain of Toll-like receptor 5 (O60602 whole entry): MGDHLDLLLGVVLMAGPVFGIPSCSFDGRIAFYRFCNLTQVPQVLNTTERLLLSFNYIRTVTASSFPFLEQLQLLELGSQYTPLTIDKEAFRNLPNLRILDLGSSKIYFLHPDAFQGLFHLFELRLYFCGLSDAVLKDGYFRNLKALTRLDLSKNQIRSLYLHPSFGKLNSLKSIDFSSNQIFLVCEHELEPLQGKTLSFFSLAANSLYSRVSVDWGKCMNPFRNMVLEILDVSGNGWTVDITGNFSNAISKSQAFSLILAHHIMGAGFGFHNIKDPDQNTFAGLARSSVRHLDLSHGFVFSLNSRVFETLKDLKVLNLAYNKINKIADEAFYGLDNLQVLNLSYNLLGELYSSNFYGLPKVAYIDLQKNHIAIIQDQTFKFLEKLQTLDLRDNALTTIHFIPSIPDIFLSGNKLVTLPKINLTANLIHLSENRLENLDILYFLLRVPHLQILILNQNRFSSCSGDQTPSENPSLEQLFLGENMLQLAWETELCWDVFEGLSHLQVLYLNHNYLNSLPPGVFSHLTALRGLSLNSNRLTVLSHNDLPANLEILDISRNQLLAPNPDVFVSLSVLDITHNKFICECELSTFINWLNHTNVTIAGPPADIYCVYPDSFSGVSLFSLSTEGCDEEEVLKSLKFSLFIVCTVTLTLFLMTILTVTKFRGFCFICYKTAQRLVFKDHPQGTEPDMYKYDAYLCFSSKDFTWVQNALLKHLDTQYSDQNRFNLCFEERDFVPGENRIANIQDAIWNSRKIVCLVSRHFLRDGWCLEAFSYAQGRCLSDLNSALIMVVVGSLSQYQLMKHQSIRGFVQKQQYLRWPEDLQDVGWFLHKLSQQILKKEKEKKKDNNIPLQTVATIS

[14] = Antagonist activity at TLR2/TLR4 (unknown origin); parameters: species or system Homo sapiens
[15] = target: T5, Toll-like receptor 8; remark: listed apart in the source
Description: as §2

[16] = target: T6, Toll-like receptor 4 (Mus musculus, UniProt Q9QUK6); test: Antagonist activity at TLR4 in mouse peritoneal macrophages assessed as inhibition of TNF-alpha production; type: cell-based, Peritoneal macrophage
T6 sequence (Q9QUK6 whole entry): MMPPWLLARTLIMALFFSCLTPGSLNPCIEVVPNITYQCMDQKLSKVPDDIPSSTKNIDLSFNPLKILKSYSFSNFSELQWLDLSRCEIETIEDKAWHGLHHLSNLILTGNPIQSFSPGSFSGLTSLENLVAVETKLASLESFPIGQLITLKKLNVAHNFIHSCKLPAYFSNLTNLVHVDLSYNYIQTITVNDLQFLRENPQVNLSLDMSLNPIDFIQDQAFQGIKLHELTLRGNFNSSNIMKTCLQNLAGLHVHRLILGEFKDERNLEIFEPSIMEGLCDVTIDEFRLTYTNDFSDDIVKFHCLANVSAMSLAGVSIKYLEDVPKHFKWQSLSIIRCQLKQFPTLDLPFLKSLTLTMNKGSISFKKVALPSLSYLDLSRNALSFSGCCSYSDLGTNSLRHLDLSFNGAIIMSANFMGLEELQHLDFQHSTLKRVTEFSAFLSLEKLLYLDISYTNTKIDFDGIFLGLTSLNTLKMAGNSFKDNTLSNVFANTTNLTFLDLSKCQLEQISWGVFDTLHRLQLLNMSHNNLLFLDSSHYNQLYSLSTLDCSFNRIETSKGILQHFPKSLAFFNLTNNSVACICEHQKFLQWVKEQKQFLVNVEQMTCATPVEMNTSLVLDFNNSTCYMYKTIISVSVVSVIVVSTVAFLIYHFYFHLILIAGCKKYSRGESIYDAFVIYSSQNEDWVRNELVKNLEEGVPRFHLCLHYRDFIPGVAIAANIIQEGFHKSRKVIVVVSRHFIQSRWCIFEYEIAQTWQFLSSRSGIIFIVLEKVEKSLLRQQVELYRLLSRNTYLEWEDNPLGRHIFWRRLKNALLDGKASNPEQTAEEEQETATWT

[17] = target: T6, Toll-like receptor 4; test: Antagonist activity at TLR4 in mouse peritoneal macrophages assessed as inhibition of NO production; type: cell-based, Peritoneal macrophage
[18] = target: T6, Toll-like receptor 4; test: Antagonist activity at TLR4 in mouse peritoneal macrophages assessed as inhibition of IL-6 production; type: cell-based, Peritoneal macrophage
[19] = target: Toll-like receptor 4 (Homo sapiens, UniProt O00206); test: Inhibition of TLR4 in human HEK293T cells co-expressing MD-2 receptor; type: cell-based
Chain of Toll-like receptor 4 (Homo sapiens, UniProt O00206) (O00206 whole entry): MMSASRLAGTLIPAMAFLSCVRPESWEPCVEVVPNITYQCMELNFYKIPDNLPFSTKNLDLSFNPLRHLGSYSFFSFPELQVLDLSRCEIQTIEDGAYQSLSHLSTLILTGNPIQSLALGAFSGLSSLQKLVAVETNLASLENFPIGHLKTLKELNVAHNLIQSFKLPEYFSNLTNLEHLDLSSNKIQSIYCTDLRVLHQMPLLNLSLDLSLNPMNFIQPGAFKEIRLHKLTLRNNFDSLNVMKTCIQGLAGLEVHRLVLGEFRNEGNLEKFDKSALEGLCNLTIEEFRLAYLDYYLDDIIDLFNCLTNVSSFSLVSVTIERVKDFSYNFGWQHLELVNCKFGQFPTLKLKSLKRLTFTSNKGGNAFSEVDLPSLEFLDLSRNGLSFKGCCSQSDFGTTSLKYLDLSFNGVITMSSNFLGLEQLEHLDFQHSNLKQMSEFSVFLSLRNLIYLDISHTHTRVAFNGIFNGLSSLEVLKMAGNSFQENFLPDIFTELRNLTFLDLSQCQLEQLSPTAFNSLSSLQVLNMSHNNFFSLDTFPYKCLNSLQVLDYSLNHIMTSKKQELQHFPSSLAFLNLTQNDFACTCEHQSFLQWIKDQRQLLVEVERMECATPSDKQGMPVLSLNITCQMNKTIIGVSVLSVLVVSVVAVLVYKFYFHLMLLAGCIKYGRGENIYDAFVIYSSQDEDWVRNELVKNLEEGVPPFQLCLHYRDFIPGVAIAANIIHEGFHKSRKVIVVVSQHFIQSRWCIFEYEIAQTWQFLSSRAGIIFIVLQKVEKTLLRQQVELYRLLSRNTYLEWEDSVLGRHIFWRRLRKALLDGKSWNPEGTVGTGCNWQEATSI

T1 sequence (O60603 whole entry): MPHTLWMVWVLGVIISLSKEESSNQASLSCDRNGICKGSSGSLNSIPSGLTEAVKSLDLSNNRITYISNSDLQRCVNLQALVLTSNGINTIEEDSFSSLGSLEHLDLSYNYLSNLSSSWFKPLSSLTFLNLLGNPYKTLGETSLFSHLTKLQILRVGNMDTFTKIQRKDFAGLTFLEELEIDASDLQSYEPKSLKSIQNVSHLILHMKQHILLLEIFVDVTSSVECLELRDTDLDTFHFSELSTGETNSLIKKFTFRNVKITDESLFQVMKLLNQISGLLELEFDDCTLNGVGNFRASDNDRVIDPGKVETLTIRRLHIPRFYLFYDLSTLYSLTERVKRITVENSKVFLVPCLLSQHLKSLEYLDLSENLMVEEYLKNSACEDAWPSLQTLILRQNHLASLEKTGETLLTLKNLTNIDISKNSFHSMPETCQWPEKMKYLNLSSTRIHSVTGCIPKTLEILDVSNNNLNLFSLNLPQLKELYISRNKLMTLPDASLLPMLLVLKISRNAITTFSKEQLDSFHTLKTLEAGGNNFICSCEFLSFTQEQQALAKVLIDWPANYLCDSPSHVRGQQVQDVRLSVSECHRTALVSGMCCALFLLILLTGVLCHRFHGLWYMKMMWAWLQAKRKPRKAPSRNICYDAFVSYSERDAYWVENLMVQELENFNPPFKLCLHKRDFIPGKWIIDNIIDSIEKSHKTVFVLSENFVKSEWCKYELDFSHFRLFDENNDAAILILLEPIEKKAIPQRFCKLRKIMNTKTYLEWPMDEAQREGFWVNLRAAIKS
T1 sequence (Q15399 whole entry): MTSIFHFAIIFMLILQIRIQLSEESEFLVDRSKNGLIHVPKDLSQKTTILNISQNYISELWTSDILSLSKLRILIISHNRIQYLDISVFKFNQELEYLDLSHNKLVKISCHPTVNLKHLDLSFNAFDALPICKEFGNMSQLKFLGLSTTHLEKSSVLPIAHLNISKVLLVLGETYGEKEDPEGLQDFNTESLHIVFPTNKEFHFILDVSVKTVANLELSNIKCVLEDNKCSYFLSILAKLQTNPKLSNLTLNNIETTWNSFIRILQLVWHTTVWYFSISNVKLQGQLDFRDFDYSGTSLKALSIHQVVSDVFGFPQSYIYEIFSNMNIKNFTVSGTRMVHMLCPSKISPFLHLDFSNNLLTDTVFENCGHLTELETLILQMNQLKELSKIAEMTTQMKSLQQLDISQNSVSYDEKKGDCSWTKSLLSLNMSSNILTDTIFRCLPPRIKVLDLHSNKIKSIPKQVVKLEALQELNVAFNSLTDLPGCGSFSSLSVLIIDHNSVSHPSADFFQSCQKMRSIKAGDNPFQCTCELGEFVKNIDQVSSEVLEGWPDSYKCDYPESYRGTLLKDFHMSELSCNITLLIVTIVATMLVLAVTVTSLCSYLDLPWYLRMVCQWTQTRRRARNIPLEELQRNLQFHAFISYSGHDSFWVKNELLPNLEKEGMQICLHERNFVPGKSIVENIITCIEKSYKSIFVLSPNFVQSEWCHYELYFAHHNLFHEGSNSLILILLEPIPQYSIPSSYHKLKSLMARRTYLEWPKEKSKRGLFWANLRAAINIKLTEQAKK
T2 sequence (O60603 whole entry): as the sequence (O60603 whole entry) above
T2 sequence (Q9Y2C9 whole entry): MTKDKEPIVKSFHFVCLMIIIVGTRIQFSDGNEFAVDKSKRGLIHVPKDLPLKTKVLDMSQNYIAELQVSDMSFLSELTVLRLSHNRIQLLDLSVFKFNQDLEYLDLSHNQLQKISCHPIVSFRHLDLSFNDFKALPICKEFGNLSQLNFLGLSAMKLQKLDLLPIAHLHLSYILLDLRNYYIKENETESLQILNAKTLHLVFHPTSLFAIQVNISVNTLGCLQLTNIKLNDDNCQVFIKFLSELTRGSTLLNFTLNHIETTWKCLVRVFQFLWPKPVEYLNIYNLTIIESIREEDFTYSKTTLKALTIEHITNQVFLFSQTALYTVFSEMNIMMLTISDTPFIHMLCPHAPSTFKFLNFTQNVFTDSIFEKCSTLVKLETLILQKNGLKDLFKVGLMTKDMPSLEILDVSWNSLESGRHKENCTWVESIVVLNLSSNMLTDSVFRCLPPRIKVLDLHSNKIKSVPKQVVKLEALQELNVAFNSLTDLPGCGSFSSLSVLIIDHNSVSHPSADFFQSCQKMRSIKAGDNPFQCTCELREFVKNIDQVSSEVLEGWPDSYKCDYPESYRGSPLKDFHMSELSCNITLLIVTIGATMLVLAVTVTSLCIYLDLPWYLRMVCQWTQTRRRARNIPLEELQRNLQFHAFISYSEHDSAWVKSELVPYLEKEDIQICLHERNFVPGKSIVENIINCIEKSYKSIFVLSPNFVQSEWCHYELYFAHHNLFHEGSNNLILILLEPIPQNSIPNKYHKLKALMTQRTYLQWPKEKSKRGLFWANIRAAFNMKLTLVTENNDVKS

In the case of `CCOC(=O)c1ccc(CC(=O)c2ccc(O)c(O)c2O)o1`, the IC50 [1] is reported as 1700 nM and the IC50 [2] is reported as 5700 nM.
For `COc1cccc(C=O)c1O`, the IC50 [3] was 24200 nM and the IC50 [4] was 37200 nM.
Work on `COCCOc1nc(N)c2[nH]c(=O)n(Cc3ccccc3)c2n1` yielded an EC50 [5] of 140 nM.
For `CCCCCCOC(=O)c1cc(O)c(=O)c2c(O)c(O)c(OC)cc2c1`, the IC50 [1] was 9100 nM, the IC50 [6] was 580 nM and the IC50 [2] was 5600 nM.
`COc1cccc(/C=N/c2cccc(C(=O)O)c2C)c1O` showed an IC50 [3] of 19700 nM and an IC50 [4] of 37600 nM.
In the case of `O=C(N[C@H](Cc1ccccc1)C(=O)O)c1sc2cc(F)ccc2c1Cl`, the IC50 [7] is reported as 3440 nM.
Compound `Cc1cccc(-c2ccnc3c(C(N)=O)cnn23)c1` has a Kd [8] of 220 nM.
Compound `CCOC(=O)c1c(NC(=O)N2CCN(C)CC2)sc2c1CCC2` has an EC50 [9] of 550 nM.
`COc1ccc2c(-c3cnc(OCc4ccccc4)c(C)c3)ccnc2c1` gave an IC50 [10] of 0.8 nM.
Work on `COc1ccc2c(-c3ccc(OCCCCO)c(C)c3)ccnc2c1` yielded an IC50 [10] of 0.1 nM.
For `O=C(N[C@H](Cc1ccccc1)C(=O)O)c1cc2c(s1)CCCCC2`, the IC50 [7] was 154000 nM.
For `CCCCn1cc2c(n1)c(N)nc1ccccc12`, the EC50 [11] was 56 nM and the EC50 [12] was 190 nM.
For `CCCN(CCC)C(=O)C1=Cc2ccc(C(=O)NC(c3ccccc3)c3ccccc3)cc2N=C(N)C1`, the EC50 [5] was over 100 nM.
In the case of `CCCN(CCC)C(=O)C1=Cc2ccc(C(=O)N3CC4(C3)CN(c3ccc(C)cc3)C4)cc2N=C(N)C1`, the EC50 [5] is reported as over 100 nM.
Compound `c1ccc(-n2c(Sc3ncnc4c3sc3ncccc34)nnc2-c2ccncc2)cc1` has an IC50 [13] of 3130 nM.
In the case of `O=c1occ2c3c(ccc(O)c13)Oc1ccc(O)cc1-2`, the IC50 [14] is reported as about 10000 nM.
Compound `CCCCc1nc2c(N)nc3ccccc3c2o1` has an EC50 [11] of 180 nM.
With `CCCN(CCC)C(=O)C1=Cc2ccc(-c3cccc(C(=O)CC)c3)cc2N=C(N)C1` the EC50 [15] was 8 nM and the EC50 [5] was 16 nM.
Compound `Cc1cc(C)c2c(n1)sc1c(Sc3nnc(-c4ccncc4)o3)ncnc12` has an IC50 [13] of 50500 nM.
With `c1cnc2sc3c(Sc4nnc(-c5ccncc5)o4)ncnc3c2c1` the IC50 [13] was 3380 nM.
For `CCc1nc2c(N)nc3ccccc3c2n1CCCCNS(C)(=O)=O` [CPG-52852], the EC50 [5] was about 3000 nM.
`CCCN(CCC)C(=O)C1=Cc2ccc(-c3ccc(C(=O)N4CCCC4)cc3)cc2N=C(N)C1` [MOTOLIMOD] showed an EC50 [15] of about 100 nM.
With `CCOC(=O)C1=CCCC[C@H]1S(=O)(=O)Nc1ccc(F)cc1Cl` [RESATORVID] the IC50 [16] was 1.9 nM, the IC50 [17] was 1.8 nM and the IC50 [18] was 1.3 nM.
`CCCCCCCCCC(CCCCCCCCC)CC(=O)OC[C@H]1O[C@H](O[C@H]2O[C@H](COC(=O)CC(CCCCCCCCC)CCCCCCCCC)[C@@H](O)[C@H](O)[C@H]2O)[C@H](O)[C@@H](O)[C@@H]1O` [VIZANTIN] showed an IC50 [19] of 53 nM.
